From patent US20120070411A1, “SUBSTITUTED NUCLEOTIDE ANALOGS” (Alios BioPharma, Inc., priority 2010, published 2012)

Tested on: Huh-7 cells containing the self-replicating, subgenomic HCV replicon
Experiment: HCV replicon assay (luciferase reporter, 72 h)
Format: cell-based
Settings: Hepatitis C virus, Huh-7, 72 h, read-out: HCV Replicon Activity (EC50)
Protocol: Huh-7 cells containing the self-replicating, subgenomic HCV replicon with a stable luciferase (LUC) reporter were cultured in Dulbecco's modified Eagle's medium (DMEM) containing 2 mM L-glutamine and supplemented with 10% heat-inactivated fetal bovine serum (FBS), 1% penicillin-streptomyocin, 1% nonessential amino acids, and 0.5 mg/ml G418.
On the first day, 5,000 HCV replicon cells were plated per well in a 96-well plate. On the following day, test compounds were solubilized in 100% DMSO to 100× the desired final testing concentration. Each compound was then serially diluted (1:3) up to 9 different concentrations. Compounds in 100% DMSO are reduced to 10% DMSO by diluting 1:10 in cell culture media. The compounds were diluted to 10% DMSO with cell culture media, which were used to dose the HCV replicon cells in 96-well format. The final DMSO concentration was 1%. The HCV replicon cells were incubated at 37° C. for 72 hours. At 72 hours, cells were processed when the cells are still subconfluent. Compounds that reduce the LUC signal are determined by Bright-Glo Luciferase Assay (Promega, Madison, Wis.). % Inhibition was determined for each compound concentration in relation to the control cells (untreated HCV replicon) to calculate the EC50.

`CCC(=O)O[C@H]1[C@@H](OC(=O)CC)[C@H](n2cnc3c(N)ncnc32)O[C@@H]1[C@H](C)OP(=O)(N[C@@H](C)C(=O)OC(C)C)Oc1ccccc1` (stereo partly drawn) [A14, 2′,3′-O-dipropionyl-5′(S)—C-methyladenosine 5′-[phenyl(isopropoxy-L-alaninyl)]phosphate] and `CCC(=O)O[C@H]1[C@@H](OC(=O)CC)[C@H](n2cnc3c(N)ncnc32)O[C@@H]1[C@H](C)OP(=O)(N[C@@H](C)C(=O)OCC(C)(C)C)Oc1ccccc1` (stereo partly drawn) [A17, 2′,3′-O-dipropionyl-5′(S)—C-methyladenosine 5′-[phenyl(neopentoxy-L-alaninyl)]phosphate] cannot be ordered by EC50: < 1 µM for the first, < 1 µM for the second.

`COC(=O)[C@H](C)NP(=O)(Oc1ccccc1)O[C@@H](C)[C@H]1O[C@@H](n2cnc3c(N)ncnc32)[C@H](O)[C@@H]1O` (stereo partly drawn) [A15, 5′(S)—C-methyladenosine 5′-[phenyl(methoxy-L-alaninyl)]phosphate] and `CC[C@H](OP(=O)(N[C@@H](C)C(=O)OC(C)C)Oc1ccccc1)[C@H]1O[C@@H](n2cnc3c(N)ncnc32)[C@H](O)[C@@H]1O` (stereo partly drawn) [A24, 5′(S)—C-ethyladenosine 5′-[phenyl(isopropoxy-L-alaninyl)]phosphate] cannot be ordered by EC50: < 30 µM for the first, < 100 µM for the second.

`COC(=O)[C@H](C)NP(=O)(Oc1ccccc1)O[C@@H](C)[C@H]1O[C@@H](n2cnc3c(N)ncnc32)[C@@H]2OC(=O)O[C@@H]21` (stereo partly drawn) [A16, 2′,3′-O-carbonyl-5′(S)—C-methyladenosine 5′-[phenyl(methoxy-L-alaninyl)]phosphate] and `CC(C)OC(=O)[C@H](C)NP(=O)(Oc1cccc2ccccc12)O[C@@H](C)[C@H]1O[C@@H](n2cnc3c(N)ncnc32)[C@@H]2OC(=O)O[C@@H]21` (stereo partly drawn) [A23, 2′,3′-O-carbonyl-5(S)—C-methyladenosine 5′-[1-naphthyl(isopropoxy-L-alaninyl)]phosphate] cannot be ordered by EC50: < 30 µM for the first, < 1 µM for the second.

`CCOC(=O)[C@H](C)NP(=O)(Oc1cccc2ccccc12)O[C@@H](C)[C@H]1O[C@@H](n2cnc3c(N)ncnc32)[C@H](O)[C@@H]1O` (stereo partly drawn) [A19, 5′(S)—C-methyladenosine 5′-[1-naphthyl(ethoxy-L-alaninyl)]phosphate] and `CC(C)OC(=O)[C@H](C)NP(=O)(Oc1cccc2ccccc12)O[C@@H](C)[C@H]1O[C@@H](n2cnc3c(N)ncnc32)[C@H](O)[C@@H]1O` (stereo partly drawn) [A20, 5′(S)—C-methyladenosine 5′-[1-naphthyl(isopropoxy-L-alaninyl)]phosphate] cannot be ordered by EC50: < 1 µM for the first, < 1 µM for the second.

`C[C@H](NP(=O)(Oc1cccc2ccccc12)O[C@@H](C)[C@H]1O[C@@H](n2cnc3c(N)ncnc32)[C@H](O)[C@@H]1O)C(=O)OCc1ccccc1` (stereo partly drawn) [A21, 5′(S)—C-methyladenosine 5′-[1-naphthyl(benzyloxy-L-alaninyl)]phosphate] and `C[C@H](OP(=O)(N[C@@H](Cc1ccccc1)C(=O)OC1CCCCC1)Oc1ccccc1)[C@H]1O[C@@H](n2cnc3c(N)ncnc32)[C@H](O)[C@@H]1O` (stereo partly drawn) [A42] cannot be ordered by EC50: < 1 µM for the first, < 30 µM for the second.

`CCC(=O)O[C@H]1[C@@H](OC(=O)CC)[C@H](n2cnc3c(N)ncnc32)O[C@@H]1[C@H](C)OP(=O)(N[C@@H](C)C(=O)OC(C)C)Oc1cccc2ccccc12` (stereo partly drawn) [A22, 2′,3′-O-dipropionyl-5′-(S)—C-methyladenosine 5′-[1-naphthyl(isopropoxy-L-alaninyl)]phosphate] and `CC(C)OC(=O)[C@H](C)NP(=O)(Oc1cccc2ccccc12)O[C@@H](C)[C@H]1O[C@@H](n2ccc(N)nc2=O)[C@H](O)[C@@H]1O` (stereo partly drawn) [C2, 5′(S)—C-methylcytidine-[naphthyl(isopropoxy-L-alaninyl)]phosphate] cannot be ordered by EC50: < 1 µM for the first, < 100 µM for the second.

`CC[C@@H](OP(=O)(N[C@@H](C)C(=O)OC(C)C)Oc1ccccc1)[C@H]1O[C@@H](n2cnc3c(N)ncnc32)[C@H](O)[C@@H]1O` (stereo partly drawn) [A25, 5′(R)—C-ethyladenosine 5′-[phenyl(isopropoxy-L-alaninyl)]phosphate] and `CC(C)OC(=O)[C@H](C)NP(=O)(Oc1ccccc1)O[C@H]([C@H]1O[C@@H](n2cnc3c(N)ncnc32)[C@H](O)[C@@H]1O)C(F)(F)F` (stereo partly drawn) [A26, 5′(S)—C-trifluoromethyladenosine 5′-[phenyl(isopropoxy-L-alaninyl)]phosphate] cannot be ordered by EC50: < 1000 µM for the first, < 100 µM for the second.

`CC(C)OC(=O)[C@H](C)NP(=O)(Oc1ccccc1)O[C@@H]([C@H]1O[C@@H](n2cnc3c(N)ncnc32)[C@H](O)[C@@H]1O)C(F)(F)F` (stereo partly drawn) [A27, 5′(R)—C-trifluoromethyladenosine 5′-[phenyl(isopropoxy-L-alaninyl)]phosphate] and `CC(C)[C@H](NP(=O)(Oc1ccccc1)O[C@@H](C)[C@H]1O[C@@H](n2cnc3c(N)ncnc32)[C@H](O)[C@@H]1O)C(=O)OC1CCCCC1` (stereo partly drawn) [A39] cannot be ordered by EC50: < 30 µM for the first, < 1 µM for the second.

`CC(NP(=O)(Oc1ccccc1Cl)OC(C)C1OC(n2cnc3c(N)ncnc32)[C@H](O)[C@@H]1O)C(=O)OC1CCCCC1` (stereo partly drawn) [A28, 5′(S)—C-methyladenosine 5′-[2-chlorophenyl(cyclohexoxy-L-alaninyl)]phosphate] and `Cc1ccccc1OP(=O)(N[C@@H](C)C(=O)OC1CCCCC1)O[C@@H](C)[C@H]1O[C@@H](n2cnc3c(N)ncnc32)[C@H](O)[C@@H]1O` (stereo partly drawn) [A37] cannot be ordered by EC50: < 1 µM for the first, < 1 µM for the second.

`C[C@H](NP(=O)(Oc1ccc(F)c(Cl)c1)O[C@@H](C)[C@H]1O[C@@H](n2cnc3c(N)ncnc32)[C@H](O)[C@@H]1O)C(=O)OC1CCCCC1` (stereo partly drawn) [A29] and `C[C@H](NP(=O)(Oc1ccc(Cl)cc1)O[C@@H](C)[C@H]1O[C@@H](n2cnc3c(N)ncnc32)[C@H](O)[C@@H]1O)C(=O)OC1CCCCC1` (stereo partly drawn) [A32] cannot be ordered by EC50: < 1 µM for the first, < 1 µM for the second.

`Cc1ccc(OP(=O)(N[C@@H](C)C(=O)OC2CCCCC2)O[C@@H](C)[C@H]2O[C@@H](n3cnc4c(N)ncnc43)[C@H](O)[C@@H]2O)cc1` (stereo partly drawn) [A30] and `COc1ccc(OP(=O)(N[C@@H](C)C(=O)OC2CCCCC2)O[C@@H](C)[C@H]2O[C@@H](n3cnc4c(N)ncnc43)[C@H](O)[C@@H]2O)cc1` (stereo partly drawn) [A33] cannot be ordered by EC50: < 1 µM for the first, < 1 µM for the second.

`CC[C@H](NP(=O)(Oc1ccccc1)O[C@@H](C)[C@H]1O[C@@H](n2cnc3c(N)ncnc32)[C@H](O)[C@@H]1O)C(=O)OC1CCCCC1` (stereo partly drawn) [A34] and `CCC[C@H](NP(=O)(Oc1ccccc1)O[C@@H](C)[C@H]1O[C@@H](n2cnc3c(N)ncnc32)[C@H](O)[C@@H]1O)C(=O)OC1CCCCC1` (stereo partly drawn) [A38] cannot be ordered by EC50: < 1 µM for the first, < 1 µM for the second.

`C[C@H](NP(=O)(Oc1cccnc1)O[C@@H](C)[C@H]1O[C@@H](n2cnc3c(N)ncnc32)[C@H](O)[C@@H]1O)C(=O)OC1CCCCC1` (stereo partly drawn) [A36] and `CC(C)C[C@H](NP(=O)(Oc1ccccc1)O[C@@H](C)[C@H]1O[C@@H](n2cnc3c(N)ncnc32)[C@H](O)[C@@H]1O)C(=O)OC1CCCCC1` (stereo partly drawn) [A40] cannot be ordered by EC50: < 30 µM for the first, < 1 µM for the second.

`CSCC[C@H](NP(=O)(Oc1ccccc1)O[C@@H](C)[C@H]1O[C@@H](n2cnc3c(N)ncnc32)[C@H](O)[C@@H]1O)C(=O)OC1CCCCC1` (stereo partly drawn) [A41] and `C[C@H](OP(=O)(NCC(=O)OC1CCCCC1)Oc1ccccc1)[C@H]1O[C@@H](n2cnc3c(N)ncnc32)[C@H](O)[C@@H]1O` (stereo partly drawn) [A43] cannot be ordered by EC50: < 1 µM for the first, < 1 µM for the second.

`COC(=O)[C@H](C)NP(=O)(Oc1ccccc1)O[C@@H](C)[C@H]1O[C@@H](n2ccc(N)nc2=O)[C@H](O)[C@@H]1O` (stereo partly drawn) [C6, 5′(S)—C-Methylcytidine 5′-[phenyl(methoxy-L-alaninyl)]phosphate] and `CC(C)OC(=O)[C@H](C)NP(=O)(Oc1ccccc1)O[C@@H](C)[C@H]1O[C@@H](n2ccc(N)nc2=O)[C@H](O)[C@@H]1O` (stereo partly drawn) [C8, 5′(S)—C-methylcytidine 5′-[phenyl(isopropoxy-L-alaninyl)]phosphate] cannot be ordered by EC50: < 100 µM for the first, < 100 µM for the second.
